This note sets out measurements from ChEMBL document CHEMBL5512688 (J Med Chem, 2024).

One data set relates to A-427. The experiment in a line: Antiproliferative activity against human A-427 cells assessed as inhibition of cell growth incubated for 72 hrs by CCK-8 assay. The format is functional, cell-based. Particulars: A-427, 72 h.
The next data set has as its target Wee1-like protein kinase (Homo sapiens, UniProt P30291). Put plainly: Inhibition of human Wee1 (215 to 647 residues) using polyornithine/tyrosine (4:1) as substrate incubated for 5 mins in presence of ATP by micro beta plate reader analysis.
Data set [1] is described as follows: Clearance in ICR mouse at 1 mg/kg, iv measured upto 24 hrs by LC-MS/MS analysis. Particulars: in vivo. The format is ADME, organism-based.
The nature of data set [2]: Half life in ICR mouse at 1 mg/kg, iv measured upto 24 hrs by LC-MS/MS analysis. The format is ADME, organism-based. Particulars: in vivo.
Data set [3] in a line: Bioavailability in ICR mouse at 60 mg/kg, IG measured upto 24 hrs by LC-MS/MS analysis. Particulars: in vivo, po. The format is ADME, organism-based.
Data set [4] can be described thus: Half life in ICR mouse at 60 mg/kg, IG measured upto 24 hrs by LC-MS/MS analysis. Particulars: in vivo, po. The format is ADME, organism-based.
A short description of data set [5]: Volume of distribution in ICR mouse at 1 mg/kg, iv measured upto 24 hrs by LC-MS/MS analysis. The format is ADME, organism-based. To be noted: in vivo.
Data set [6] can be described thus: Metabolic stability in human liver microsome assessed as parent compound remaining measured at 60 mins by LCMS/MS analysis. The format is ADME. Particulars: liver microsomes, read-out: Stability.
The nature of data set [7]: AUC (0 to 24 hrs) in ICR mouse at 60 mg/kg, IG measured upto 24 hrs by LC-MS/MS analysis. It is filed as ADME, organism-based. To be noted: in vivo, po.
Data set [8] in a line: AUC (0 to 24 hrs) in ICR mouse at 1 mg/kg, iv measured upto 24 hrs by LC-MS/MS analysis. To be noted: in vivo. It is filed as ADME, organism-based.
Data set [9] is described as follows: Metabolic stability in mouse liver microsome assessed as parent compound remaining measured at 60 mins by LCMS/MS analysis. Particulars: liver microsomes, read-out: Stability. The format is ADME.

Structures are written as SMILES.

Sequence of Wee1-like protein kinase (P30291 whole entry, the tested form may be a part): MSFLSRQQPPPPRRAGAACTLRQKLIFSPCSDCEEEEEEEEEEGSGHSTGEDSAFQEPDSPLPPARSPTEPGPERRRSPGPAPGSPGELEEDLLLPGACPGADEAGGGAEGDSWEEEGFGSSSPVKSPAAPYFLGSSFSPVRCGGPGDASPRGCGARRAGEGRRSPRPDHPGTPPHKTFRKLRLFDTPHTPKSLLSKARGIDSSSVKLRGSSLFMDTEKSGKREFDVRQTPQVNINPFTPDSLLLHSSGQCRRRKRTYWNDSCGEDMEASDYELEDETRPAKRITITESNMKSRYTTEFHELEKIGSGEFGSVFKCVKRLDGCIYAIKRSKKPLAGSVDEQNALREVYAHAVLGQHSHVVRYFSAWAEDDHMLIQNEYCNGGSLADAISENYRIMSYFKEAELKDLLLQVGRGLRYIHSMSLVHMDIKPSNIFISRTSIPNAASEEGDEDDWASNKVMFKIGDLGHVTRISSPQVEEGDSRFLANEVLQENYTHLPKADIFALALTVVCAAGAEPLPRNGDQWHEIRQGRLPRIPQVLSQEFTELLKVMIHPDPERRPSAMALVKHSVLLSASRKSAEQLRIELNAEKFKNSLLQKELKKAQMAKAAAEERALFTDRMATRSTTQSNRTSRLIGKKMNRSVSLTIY

Turning to `C=CCn1c(=O)c2cnc(Nc3ccc(N4CCN(C)CC4)cc3)nc2n1-c1cccc(-n2nc(C)cc2C)n1`, the IC50 with A-427 came out at 955 nM; at Wee1-like protein kinase, 2.2 nM.
In data set [1], `C=CCn1c(=O)c2cnc(Nc3ccc(N4CCN(C)CC4)cc3)nc2n1-c1cccc(-c2cccnn2)n1` had a clearance of 88.2 mL/min/kg. Also, the half-life is 2.45 h in data set [2] and 8.65 h in data set [4]. In [3], the bioavailability is 41.9%. This compound also came in with a Vd in data set [5] of 11.7 L/kg. Also, the IC50 with A-427 was found to be 206 nM; on Wee1-like protein kinase, 2 nM. Moreover, the remaining at 1 h in data set [6] was found to be 46.5%; in [9], 55.1%. Further, the AUC(0-t) at 24 h is 4270 ng·h/mL in [7] and 170 ng·h/mL in [8].
Turning to `C=CCn1c(=O)c2cnc(Nc3ccc(N4CCN(C)CC4)cc3)nc2n1-c1cccc(-c2cnn(C)c2)n1`, the figures for the IC50 in the data set with A-427 and at Wee1-like protein kinase were 616 nM and 2.6 nM, respectively.
In the same order, the values of `C=CCn1c(=O)c2cnc(Nc3ccc(N4CCN(C)CC4)cc3)nc2n1-c1cncc(-c2cnccn2)c1` are 4180 nM and 13.4 nM.
Compound `C=CCn1c(=O)c2cnc(Nc3ccc(N4C[C@@H](C)N[C@@H](C)C4)cc3)nc2n1-c1cccc(-c2cccnn2)n1` showed a clearance in data set [1] of 178 mL/min/kg. Besides, the half-life in data set [2] is 1.56 h. In addition, the bioavailability in [3] is 0.4%. Further, in data set [5], the Vd came to 20.3 L/kg. In addition, the results for the IC50 in the data set on A-427 and on Wee1-like protein kinase were 240 nM and 2.1 nM, respectively. For the same compound, the remaining at 1 h stood at 74.1% in [6] and 87.1% in [9]. Moreover, the AUC(0-t) at 24 h came out at 20.8 ng·h/mL in [7] and 86.7 ng·h/mL in data set [8].
As for `C=CCn1c(=O)c2cnc(Nc3ccc(N4CCN(C)CC4)cc3)nc2n1-c1ccc2ncn(C(C)C)c2c1`, the IC50 was determined as 310 nM with A-427 and 2.1 nM at Wee1-like protein kinase.
In the same order, the values of `C=CCCn1c(=O)c2cnc(Nc3ccc(N4CCN(C)CC4)cc3)nc2n1-c1cccc(-c2cnccn2)n1` are 1050 nM and 9.4 nM.
In data set [1], `C=CCn1c(=O)c2cnc(Nc3ccc(N4CCNCC4)cc3)nc2n1-c1cccc(-c2ncccn2)n1` showed a clearance of 82 mL/min/kg. The compound also had a half-life in data set [2] of 1.24 h. In data set [3], the bioavailability was determined as 1.96%. In data set [5], this compound came in with a Vd of 5.66 L/kg. Besides, the half-maximal inhibitory concentration (IC50) was 320 nM in the data set with A-427 and 0.89 nM on Wee1-like protein kinase. For the same compound, the remaining at 1 h in data set [6] came to 90.9%; in [9], 99.1%. In addition, the AUC(0-t) at 24 h in [7] stood at 235 ng·h/mL; in data set [8], 199 ng·h/mL.
Take `CN1CCN(c2ccc(Nc3ncc4c(=O)n(CC5CC5)n(-c5cccc(-c6cnccn6)n5)c4n3)cc2)CC1`: the values for the IC50 in the data set with A-427 and on Wee1-like protein kinase were 1870 nM and 33 nM, respectively.
With `C=CCn1c(=O)c2cnc(Nc3ccc(N4CCN(C)CC4)cc3)nc2n1-c1cccc(-n2cc(C)cn2)n1`, the IC50 with A-427 was found to be 221 nM; on Wee1-like protein kinase it was 3.7 nM. Moreover, the remaining at 1 h in [6] was found to be 6.06%; in [9], 11.2%.
In the same order, the values of `C=CCn1c(=O)c2cnc(Nc3ccc(N4CCN(C)CC4)cc3)nc2n1-c1cccc(-n2cc(F)cn2)n1` are 329 nM, 4.5 nM, 3.89% and 15.9%.
In the same order, the values of `C=CCn1c(=O)c2cnc(Nc3ccc(N4CCN(C)CC4)cc3)nc2n1-c1cccc(-n2cccn2)n1` are 252 nM, 2.4 nM, 18% and 8.82%.
In the same order, the values of `C=CCn1c(=O)c2cnc(Nc3ccc4c(c3)CN(C)CC4)nc2n1-c1cccc(-c2cccnn2)n1` are 245 nM, 2.3 nM, 42.2% and 39.4%.
As to `C=CCn1c(=O)c2cnc(Nc3ccc(N4CCN(C)CC4)cc3)nc2n1-c1cccc(-c2cc(F)ccn2)n1`, the IC50 with A-427 is 240 nM; at Wee1-like protein kinase, 2.4 nM. Besides, the remaining at 1 h was found to be 30.7% in data set [6] and 13.4% in data set [9].
As for `C=CCn1c(=O)c2cnc(Nc3ccc(N4CCN(C)CC4)cc3)nc2n1-c1cc(-c2cnccn2)ccn1`, the IC50 in the data set on A-427 turned out to be 3510 nM; at Wee1-like protein kinase, 12.6 nM.
For the compound `COCCn1c(=O)c2cnc(Nc3ccc(N4CCN(C)CC4)cc3)nc2n1-c1cccc(-c2cnccn2)n1`, the concentration for half-maximal inhibition (IC50) with A-427 was determined as 512 nM; on Wee1-like protein kinase, 16 nM.
In the same order, the values of `CC(C)n1c(=O)c2cnc(Nc3ccc(N4CCN(C)CC4)cc3)nc2n1-c1cccc(-c2cnccn2)n1` are 1410 nM and 3.4 nM.
On to `C=CCn1c(=O)c2cnc(Nc3ccc(N4CCN(CCN(C)C)CC4)cc3)nc2n1-c1cccc(-c2ncccn2)n1`, for which the IC50 stood at 556 nM in the data set with A-427 and 3.1 nM on Wee1-like protein kinase. For the same compound, the remaining at 1 h in data set [6] amounted to 106%; in data set [9], 94.7%.
In the same order, the values of `C=CCn1c(=O)c2cnc(Nc3ccc(N4CCN(C)CC4)c(OC)c3)nc2n1-c1cccc(-c2cccnn2)n1` are 231 nM, 2.5 nM, 34.8% and 53.1%.
In the same order, the values of `C=CCn1c(=O)c2cnc(Nc3ccc(N4C[C@@H](C)N[C@@H](C)C4)cc3)nc2n1-c1cccc(-c2cnccn2)n1` are 232 nM, 1.7 nM, 44.1% and 17.8%.
In the same order, the values of `C=CCn1c(=O)c2cnc(Nc3ccc(C4CCN(C)CC4)cc3)nc2n1-c1cccc(-c2cccnn2)n1` are 156 nM, 1.8 nM, 67% and 44.7%.
With `C=CCn1c(=O)c2cnc(Nc3ccc(N4CCN(C)CC4)cc3)nc2n1-c1cccc(-c2cnc(Cl)cn2)n1`, the results for the IC50 in the data set on A-427 and on Wee1-like protein kinase were 434 nM and 2.2 nM, respectively.
On to `C=CCn1c(=O)c2cnc(Nc3ccc(N4CCN(C)CC4)cc3)nc2n1-c1cccc(-c2ncc(F)cn2)n1`, for which the IC50 with A-427 amounted to 454 nM; on Wee1-like protein kinase, 3.2 nM. Further, the remaining at 1 h in data set [6] is 49.8%; in data set [9], 48.2%.
Take `C=CCn1c(=O)c2cnc(Nc3ccc(N4CCN(C)CC4)cc3)nc2n1-c1ccc2ccccc2n1`: the IC50 came out at 949 nM with A-427 and 2.2 nM on Wee1-like protein kinase.
Consider `C=CCn1c(=O)c2cnc(Nc3ccc(N4CCN(C)CC4)cc3)nc2n1-c1cccc(-n2cnc(C)c2)n1`, for which the IC50 turned out to be 347 nM with A-427 and 3.8 nM on Wee1-like protein kinase. The results for the remaining at 1 h in [6] and in [9] were 7.35% and 18.6%, respectively.
In the case of `C=CCn1c(=O)c2cnc(Nc3ccc(N4C5CCC4CN(C)C5)cc3)nc2n1-c1cccc(-c2cnccn2)n1`, the IC50 is 603 nM in the data set on A-427 and 2 nM at Wee1-like protein kinase.
Regarding `C=CCn1c(=O)c2cnc(Nc3ccc(N4CCN(C)CC4)cc3)nc2n1-c1cccc(-c2cccc(F)n2)n1`, the IC50 with A-427 came out at 280 nM; at Wee1-like protein kinase, 2.2 nM. Further, the results for the remaining at 1 h in data set [6] and in data set [9] were 32.5% and 18.4%, respectively.
In the same order, the values of `C=CCn1c(=O)c2cnc(Nc3ccc(N4CCN(C)CC4)cc3)nc2n1-c1cccc(-c2ccc(F)cn2)n1` are 327 nM, 1.8 nM, 29.7% and 18.1%.
In the same order, the values of `C=CCn1c(=O)c2cnc(Nc3ccc(N4C[C@H]5C[C@@H]4CN5C)cc3)nc2n1-c1cccc(-c2cnccn2)n1` are 226 nM, 2.3 nM, 73.5% and 40.5%.
`C=CCn1c(=O)c2cnc(Nc3ccc(N4CCN(C)CC4)cc3)nc2n1-c1cccc(-c2cnn(C(F)F)c2)n1`: the results for the IC50 in the data set with A-427 and on Wee1-like protein kinase were 372 nM and 2.5 nM, respectively.
In the case of `C=CCn1c(=O)c2cnc(Nc3ccc(N4CCN(CCN(C)C)CC4)cc3)nc2n1-c1cccc(-c2cnccn2)n1`, the IC50 in the data set on A-427 came out at 238 nM; on Wee1-like protein kinase, 3.1 nM. The remaining at 1 h in data set [6] was found to be 67.2%; in data set [9], 56.9%.
As for `C=CCn1c(=O)c2cnc(Nc3ccc(N4CCN(C)CC4)cc3)nc2n1-c1cccc(-n2ccc(C)n2)n1`, the IC50 in the data set on A-427 came out at 898 nM; at Wee1-like protein kinase, 4.1 nM.
In the same order, the values of `C=CCn1c(=O)c2cnc(Nc3ccc(N4CCN(C)CC4)cc3)nc2n1-c1ccc2cnn(C(C)C)c2c1` are 315 nM and 2.4 nM.
For `C=CCn1c(=O)c2cnc(Nc3ccc(N4CCN(C)CC4)cc3)nc2n1-c1cccc(-c2ncc(C#N)cn2)n1`, the figures for the IC50 in the data set with A-427 and at Wee1-like protein kinase were 342 nM and 2.4 nM, respectively.
With `C=CCn1c(=O)c2cnc(Nc3ccc(N4C5CCC4CN(C)C5)cc3)nc2n1-c1cccc(-c2cccnn2)n1`, the IC50 in the data set with A-427 turned out to be 226 nM; at Wee1-like protein kinase it was 3 nM. For the same compound, the remaining at 1 h in [6] came out at 28.6%; in [9], 23.8%.
In the case of `C=CCn1c(=O)c2cnc(Nc3ccc4c(c3)CNCC4)nc2n1-c1cccc(-c2ncccn2)n1`, the IC50 came out at 283 nM in the data set on A-427 and 1.4 nM at Wee1-like protein kinase. The remaining at 1 h was determined as 81% in [6] and 65.8% in data set [9].
